Where a SMILES comes first, the peptide text is derived from it. [ ]: non-standard residue; d: D form. NMePhe(4-NO2) = CN[C@@H](Cc1ccc([N+](=O)[O-])cc1)C(=O)O; dPhe(4-Cl) = N[C@H](Cc1ccc(Cl)cc1)C(=O)O; d2Nal = N[C@H](Cc1ccc2ccccc2c1)C(=O)O; dCit = NC(=O)NCCC[C@@H](N)C(=O)O; d3Pal = N[C@H](Cc1cccnc1)C(=O)O
Molecular target: T1, LHRH (Rattus norvegicus, UniProt P30969)
T1 construct: endogenous in cells
T1 sequence (P30969 1-327): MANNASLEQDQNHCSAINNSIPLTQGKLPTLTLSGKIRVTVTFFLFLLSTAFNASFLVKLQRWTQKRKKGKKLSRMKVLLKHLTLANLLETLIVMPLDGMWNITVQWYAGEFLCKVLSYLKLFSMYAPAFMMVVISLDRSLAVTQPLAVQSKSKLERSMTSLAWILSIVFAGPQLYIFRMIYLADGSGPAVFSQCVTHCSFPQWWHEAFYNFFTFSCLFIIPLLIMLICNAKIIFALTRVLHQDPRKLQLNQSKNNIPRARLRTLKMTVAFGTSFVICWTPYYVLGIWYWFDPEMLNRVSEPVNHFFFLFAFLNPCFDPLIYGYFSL
Assay: in vitro test for LHRH antagonist potency (pA2) against the agonist leuprolide
Type: cell-based
Conditions: negative logarithm of the concentration of antagonist which shifts the response curve produced by the agonist leuprolide to two-fold higher concentration
Experimental: Representative compounds of the present invention were evaluated in in vitro tests for receptor binding (pKI) and for LHRH antagonist potency (pA2). The tests employed the methods detailed in F. Haviv, et al. J. Med. Chem, 32: 2340-2344 (1989). The receptor binding affinities (pKI) are the negative logarithms of the equilibrium dissociation constants, and the values of pA2 are the negative logarithms of the concentration of antagonist which shift the response curve produced by the agonist leuprolide to two-fold higher concentration. (Leuprolide is the LHRH agonist having the structure 5-ox--Pro^1 --His^2 --Trp^3 --Ser^4 -- Tyr^5 --D--Leu^6 --Leu^7 --Arg^8 --Pro^9 --NHEt and is disclosed and claimed in U.S. Pat. No. 4,005,063.) Typically pA2 values of 9.5 or greater are indicative of good LHRH antagonist potency.

Row | Compound | Kb | pA2
1 | CC(=O)N[C@H](Cc1ccc2ccccc2c1)C(=O)N[C@H](Cc1ccc(Cl)cc1)C(=O)N[C@H](Cc1cccnc1)C(=O)N[C@@H](CO)C(=O)N(C)[C@@H](Cc1ccc([N+](=O)[O-])cc1)C(=O)N[C@H](CCCNC(N)=O)C(=O)N[C@@H](CC(C)C)C(=O)N[C@@H](CCCNC(=N)N)C(=O)N1CCC[C@H]1C(=O)N[C@H](C)C(N)=O [Example 1, NAc--D-2Nal--D-4ClPhe--D-3Pal--Ser--NMe(4-NO2)Phe--D--Cit--Leu--Arg--Pro--DAlaNH2] (Ac-[d2Nal][dPhe(4-Cl)][d3Pal]S[NMePhe(4-NO2)][dCit]LRP[dA]-NH2) | 5.5 pM | –
2 | NAc--D2Nal--D4ClPhe--D3Pal--Ser--NMe(4-Atza)Phe--DLyS(Nic)--Leu--Lys(Isp)-- ProDAlaNH2 [Example 3] | – | 11.22
3 | NAc--D-2Nal--D-4ClPhe--D-3Pal--Ser--NMe--(4-Atza)Phe--D--(4-Atza)Phe--Leu --Lys(Isp)--Pro--D--AlaNH2 [Example 5] | – | 10.68
4 | NAc--D-2Nal--D-4ClPhe--D-3Pal--Ser--NMeTyr--D-(4-Atza)Phe--Leu--Lys(Isp)--Pro--D--AlaNH2 [Example 4] | – | 10.35

Source: US5491217A, “LHRH antagonists having modified aminoacyl residues at positions 5 and 6” (TAP Holding Inc., priority 1994, dated 1996)
